Source: ChEMBL document CHEMBL1134854, “Synthesis and biological evaluation of N-(7-indolyl)-3-pyridinesulfonamide derivatives as potent antitumor agents” (Bioorg Med Chem Lett, 2002)
Where “and” joins values, the source holds several entries; their conditions need not be identical. Equal entries are not always repeated.

Tests used:
Mus musculus = species: Mus musculus; test: Number of deaths per total number of aminals tested; 0/5; type: functional
Colon cancer cell line [1] = test: In vivo activity as average tumor volume on day 9/average tumor volume on day 1; drug administered intraperitoneal; type: functional, Homo sapiens
Colon cancer cell line [2] = test: In vivo activity as average tumor weight on day 22/average tumor weight in control group on day 22*100; drug administered intraperitoneal; type: functional, Homo sapiens
HCT-116 = test: Inhibitory concentration in vitro against HCT116 human colon cancer cells were determined for 72 h; type: functional, cell-based; settings: HCT-116, 72 h
Colon cancer cell line [3] = test: In vivo activity as average tumor weight on day 22/average tumor weight in control group on day 22*100; drug administered intra venously; type: functional, Homo sapiens
Colon cancer cell line [4] = test: In vivo activity as average tumor volume on day 9/average tumor volume on day 1; drug administered intra venously; type: functional, Homo sapiens
Colon cancer cell line [5] = test: In vivo activity as average tumor volume on day 9/average tumor volume on day 1 drug administered per oral; type: functional, Homo sapiens
Colon cancer cell line [6] = test: In vivo activity as average tumor weight on day 22/average tumor weight in control group on day 22*100; drug administered per oral; type: functional, Homo sapiens
Colon cancer cell line [7] = test: In vivo activity as average tumor volume on day 9/average tumor volume on day 1; drug administered per oral; type: functional, Homo sapiens

Row | Structure (SMILES) | Deaths/total (Mus musculus) | Day 9-RTV (Colon cancer cell line [1]) | Day 22-T/C (Colon cancer cell line [2]) | IC50 (HCT-116) | Day 22-T/C (Colon cancer cell line [3]) | Day 9-RTV (Colon cancer cell line [4]) | Day 9-RTV (Colon cancer cell line [5]) | Day 22-T/C (Colon cancer cell line [6]) | Day 9-RTV (Colon cancer cell line [7])
1 | N#Cc1c[nH]c2c(NS(=O)(=O)c3cccnc3)cccc12 | 0% | 2.6 | 65% | 0.23 µM | – | – | – | – | –
2 | CNc1ccc(S(=O)(=O)Nc2cccc3c(Cl)c[nH]c23)cn1 | 0% | 0.24 | 38% | 0.86 µM | – | – | – | – | –
3 | O=S(=O)(Nc1cccc2c(Cl)c[nH]c12)c1ccc(O)nc1 | 0% | 3 | 66% | 0.8 µM | – | – | – | – | –
4 | Cc1cncc(S(=O)(=O)Nc2cccc3c(Cl)c[nH]c23)c1 | 0% | 3.7 | 82% | 0.22 µM | – | – | – | – | –
5 | CC(C)Nc1ccc(S(=O)(=O)Nc2cccc3c(Cl)c[nH]c23)cn1 | 0% | 0.28 and 0.9 | – | 1.3 µM | – | – | – | – | –
6 | NS(=O)(=O)c1ccc(S(=O)(=O)Nc2cccc3c(Cl)c[nH]c23)cn1 | 0% | 0.1 and 0.29 | 12% and 23% | 0.29 µM | 8% | 0.15 | – | – | –
7 | N#Cc1c[nH]c2c(NS(=O)(=O)c3ccc(N)nc3)cccc12 | 0% | 1.5 | 35% | 0.64 µM | – | – | 2.3 | 75% | –
8 | O=S(=O)(Nc1cccc2c(Cl)c[nH]c12)c1cccnc1 | 0% | 3.4 | 70% | 0.26 µM | – | – | – | – | –
9 | O=S(=O)(Nc1cccc2c(Cl)c[nH]c12)c1ccc(NCCO)nc1 | 0% | 4.3 | 89% | 0.65 µM | – | – | – | – | –
10 | Nc1ccc(S(=O)(=O)Nc2cccc3c(Cl)c[nH]c23)cn1 | 0% | 0.3 | 26% | 0.71 µM | – | – | – | 12% | 0.19
11 | Cc1cncc(S(=O)(=O)Nc2cccc3c(C#N)c[nH]c23)c1 | 0% | 0.52 | 30% | 0.19 µM | – | – | – | 106% | 3.4
